Literature values as cited in patent publication US20020102309A1, “CONTROLLED RELEASE FORMULATION FOR ADMINISTRATION OF AN ANTI-INFLAMMATORY NAPHTHALENE DERIVATIVE” (priority 1999, published 2002).

Test system: patients with osteoarthritis or rheumatoid arthritis

Structure (SMILES): COc1ccc2cc(CCC(C)=O)ccc2c1 [nabumetone, 4-(6′-methoxy-2′-naphthyl)butan-2-20 one]
- duodenal ulcer, gastric ulcer, and gastrointestinal bleeding, patients taking the drug (literature (Pisko et al. 1987 and others)): less than 1 % of patients
- ulcers occurred, treated patients (patients with osteoarthritis or rheumatoid arthritis, Dahl 1993): 0.03 % of patients
